Results published in patent US8946446B2, “Pyrrolo sulfonamide compounds for modulation of orphan nuclear receptor RAR-related orphan receptor-γ (ROR-γ, NR1F3) activity and for the treatment of chronic inflammatory and autoimmune diseases” (Phenex Pharmaceuticals AG, priority 2011, dated 2015).

molecular target: T1, RORγ ligand binding domain (LBD) (Homo sapiens, UniProt P51449); experiment: TR-FRET Activity Assay (ligand sensing, RORγ-LBD / coactivator peptide interaction); format: biochemical; settings: not given
T1 construct: made in house; host or cells: E. coli BL-21 (BL3), vector pDEST15
T1 sequence (P51449 269-508 limits assumed): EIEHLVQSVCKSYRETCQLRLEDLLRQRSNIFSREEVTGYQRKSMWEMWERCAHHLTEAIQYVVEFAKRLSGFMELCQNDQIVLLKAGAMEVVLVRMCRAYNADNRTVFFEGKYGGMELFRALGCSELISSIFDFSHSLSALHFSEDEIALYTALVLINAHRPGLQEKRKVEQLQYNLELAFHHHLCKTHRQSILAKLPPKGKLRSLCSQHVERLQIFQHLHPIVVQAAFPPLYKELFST
Description: This method measures the ability of putative ligands to modulate the interaction between the purified bacterial expressed RORγ ligand binding domain (LBD) and synthetic N-terminally biotinylated peptides which are derived from nuclear receptor coactivator proteins such as but not limited to SRC1 (NcoA1), SRC2 (NcoA2, TIF2), SRC3 (NcoA3), PGC1α, PGC1β, CBP, GRIP1, TRAP220, RIP140.
The ligand-binding domain (LBD) of RORγ was expressed as fusion protein with GST in […] cells using the vector pDEST15. Cells were lysed by lysozyme-treatment and sonication, and the fusion proteins purified over glutathione sepharose (Pharmacia) according to the manufacturers instructions. For screening of compounds for their influence on the RORγ-peptide interaction, the LANCE technology (Perkin Elmer) was applied. This method relies on the binding dependent energy transfer from a donor to an acceptor fluorophor attached to the binding partner of interest. For ease of handling and reduction of background from compound fluorescence LANCE technology makes use of generic fluorophore labels and time resolved detection assays were done in a final volume of 25 μL in a 384 well plate, in a Tris-based buffer system (20 mM Tris-HCl pH6.8; 60 mM KCl, 1 mM DTT; 5 mM MgCl2; 35 ng/μL BSA), containing 20-60 ng/well recombinantly expressed RORγ-LBD fused to GST, 200-600 nM N-terminally biotinylated peptide, 200 ng/well Streptavidin-xIAPC conjugate (Prozyme) and 6-10 ng/well Eu W1024-antiGST (Perkin Elmer). DMSO content of the samples was kept at 1%.
After generation of the Tris-based buffer system, the potentially RORγ modulating ligands were diluted. […] The LANCE signal was detected by a Perkin Elmer EnVision™ Multilabel Counter. The results were visualized by plotting the ratio between the emitted light at 665 nm and 615 nm. […] Ligands that promote the complex formation induce a concentration-dependent increase in time-resolved fluorescent signal.
The normalised TR-FRET assay values, using the following equation: 1000*665 nm measurement value/615 nm measurement value, were transferred to the program GraphPad Prism to generate graphs and dose response curves using the following equation:
Equation: Sigmoidal Dose-Response (Variable Slope) Y=Bottom+(Top-Bottom)/(1+10^((LogEC50−X)*HillSlope)) X is the logarithm of the concentration. Y is the response. Y starts at Bottom and goes to Top with a sigmoidal shape.
This is identical to the “four parameter logistic equation”. The IC50 values are calculated using this equation.

Structure (SMILES)	IC50
Cc1c(S(N)(=O)=O)cc(-c2cc(C(C)(C)C)cc(C(C)(C)C)c2)n1CC1CCCCO1 (stereo not shown) [1/21]	500 to 2000 nM
Cc1c(S(N)(=O)=O)cc(-c2cn(S(=O)(=O)NC(C)(C)C)c3ccccc23)n1CC1CCCCC1 [1/32]	> 2000 nM
Cc1c(S(=O)(=O)NCC(C)(C)O)cc(-c2cc(C(C)(C)C)cc(C(C)(C)C)c2)n1CC1CCCCC1 [2/5]	< 500 nM
Cc1c(S(N)(=O)=O)cc(-c2cc3c(c(C(C)(C)C)c2)OCC(=O)N3C(C)C)n1CC1CCCCC1 [12/10]	500 to 2000 nM
Cc1c(S(N)(=O)=O)cc(-c2cc(C(C)(C)C)c(OCCO)c(C(C)(C)C)c2)n1CC1CCCCC1 [16/8]	500 to 2000 nM
Cc1c(S(N)(=O)=O)cc(-c2cc(C(C)(C)C)c(OCC(=O)O)c(C(C)(C)C)c2)n1CC1CCCCC1 [16/9]	> 2000 nM

same assay, conditions: read-out: RORγ activity in the TR-FRET Activity Assay (IC50 FRET), Group

Structure (SMILES)	IC50
Cc1c(S(N)(=O)=O)cc(-c2cccc(N3CCCC3)c2)n1CC1CCCCC1 [1/14]	> 2000 nM
Cc1c(S(N)(=O)=O)cc(-c2cc(C(F)(F)F)c3ncccc3c2)n1CC1CCCCC1 [1/16]	> 2000 nM
Cc1c(S(N)(=O)=O)cc(-c2cccc(S(=O)(=O)N(C)C(C)(C)C)c2)n1CC1CCCCC1 [1/17]	> 2000 nM
Cc1c(S(N)(=O)=O)cc(-c2cn(S(=O)(=O)c3ccccc3)c3ccccc23)n1CC1CCCCC1 [1/19]	500 to 2000 nM
Cc1c(S(N)(=O)=O)cc(-c2cc(C(C)(C)C)cc(C(C)(C)C)c2)n1CC1CCOCC1 [1/20]	> 2000 nM
Cc1c(S(N)(=O)=O)cc(-c2cc(C(C)(C)C)cc(C(C)(C)C)c2)n1CCC1CCCC1 [1/22]	< 500 nM
Cc1c(S(N)(=O)=O)cc(-c2cc(C(C)(C)C)nc(C(F)(F)F)c2)n1CC1CCCCC1 [1/23]	500 to 2000 nM
Cc1c(S(N)(=O)=O)cc(-c2ccc(S(=O)(=O)N3CCC3(C)C)c(C(C)(C)C)c2)n1CC1CCCCC1 [1/24]	< 500 nM
Cc1c(S(N)(=O)=O)cc(-c2ccc(S(=O)(=O)N3CCCCC3)c(C(C)(C)C)c2)n1CC1CCCCC1 [1/25]	< 500 nM
Cc1c(S(N)(=O)=O)cc(-c2ccc(S(=O)(=O)N3CCC(C)CC3)c(C(C)(C)C)c2)n1CC1CCCCC1 [1/26]	500 to 2000 nM
Cc1c(S(N)(=O)=O)cc(-c2ccc(S(=O)(=O)N3CCCC(C)C3)c(C(C)(C)C)c2)n1CC1CCCCC1 (stereo not shown) [1/27]	< 500 nM
Cc1c(S(N)(=O)=O)cc(-c2cn(S(=O)(=O)N(C)C(C)(C)C)c3ccccc23)n1CC1CCCCC1 [1/31]	< 500 nM
Cc1c(S(N)(=O)=O)cc(-c2cn(S(=O)(=O)N3CCCCC3)c3ccccc23)n1CC1CCCCC1 [1/33]	500 to 2000 nM
Cc1c(S(N)(=O)=O)cc(-c2cn(S(=O)(=O)NC3CCCCC3)c3ccccc23)n1CC1CCCCC1 [1/34]	500 to 2000 nM
Cc1ccc2c(-c3cc(S(N)(=O)=O)c(C)n3CC3CCCCC3)cn(S(=O)(=O)N3CCCCC3)c2c1 [1/35]	< 500 nM
Cc1c(S(N)(=O)=O)cc(-c2c(C)n(S(=O)(=O)N3CCCCC3)c3ccccc23)n1CC1CCCCC1 [1/36]	> 2000 nM
Cc1c(S(N)(=O)=O)cc(-c2cc(C(C)(C)C)cc(C(C)(C)C)c2)n1CC1CCCCCC1 [1/37]	< 500 nM
Cc1c(S(N)(=O)=O)cc(-c2cc(C(C)(C)C)cc(C(C)(C)C)c2)n1CC1CCCC1 [1/38]	500 to 2000 nM
Cc1c(S(N)(=O)=O)cc(-c2cc(C(C)(C)C)cc(C(C)(C)C)c2)n1CC1CCC1 [1/39]	500 to 2000 nM
Cc1c(S(=O)(=O)NCCO)cc(-c2cc(C(C)(C)C)cc(C(C)(C)C)c2)n1CC1CCCCC1 [2/2]	< 500 nM
Cc1c(S(=O)(=O)NC2CCC2)cc(-c2cc(C(C)(C)C)cc(C(C)(C)C)c2)n1CC1CCCCC1 [2/3]	500 to 2000 nM
Cc1c(S(=O)(=O)NC2CCCC2)cc(-c2cc(C(C)(C)C)cc(C(C)(C)C)c2)n1CC1CCCCC1 [2/4]	500 to 2000 nM
Cc1c(S(=O)(=O)NCCN2CCOCC2)cc(-c2cc(C(C)(C)C)cc(C(C)(C)C)c2)n1CC1CCCCC1 [2/6]	< 500 nM
Cc1c(S(=O)(=O)NCc2nc(C(=O)O)co2)cc(-c2cc(C(C)(C)C)cc(C(C)(C)C)c2)n1CC1CCCCC1 [5/5]	500 to 2000 nM
Cc1c(S(=O)(=O)NCC2COCCN2C)cc(-c2cc(C(C)(C)C)cc(C(C)(C)C)c2)n1CC1CCCCC1 (stereo not shown) [5/11]	500 to 2000 nM
Cc1c(S(=O)(=O)NCC(C)(C)C(=O)O)cc(-c2cc(C(C)(C)C)cc(C3(C)CC3)c2)n1CC1CCCCC1 [11/1]	> 2000 nM
Cc1c(S(N)(=O)=O)c(C)n(CC2CCCCC2)c1-c1cc(C(C)(C)C)cc(C(C)(C)C)c1 [12/8]	500 to 2000 nM
Cc1c(S(N)(=O)=O)cc(-c2cc3c(c(C(C)(C)C)c2)OCC(=O)N3C)n1CC1CCCCC1 [12/9]	> 2000 nM

Structure (SMILES)	IC50
Cc1c(S(N)(=O)=O)cc(-c2cc(OCC(F)(F)F)nc(C(C)(C)C)c2)n1CC1CCCCC1 [12/12]	< 500 nM
Cc1c(S(N)(=O)=O)cc(-c2cc(C(C)C)c3c(c2)C(C)(C)NS3(=O)=O)n1CC1CCCCC1 [12/17]	> 2000 nM
Cc1c(S(N)(=O)=O)cc(-c2ccc3c(c2)C(C)(C)CN(C(C)C)S3(=O)=O)n1CC1CCCCC1 [12/18]	> 2000 nM
Cc1c(S(N)(=O)=O)cc(-c2cc(C(C)(C)C)cc(C(C)(C)CF)c2)n1CC1CCCCC1 [12/26]	> 2000 nM
CC(=O)c1cc(-c2cc(S(N)(=O)=O)c(C)n2CC2CCCCC2)cc(C(C)(C)C)c1 [12/27]	> 2000 nM
Cc1c(S(N)(=O)=O)cc(-c2cc3c(c(C(C)(C)C)c2)OCCC3=O)n1CC1CCCCC1 [12/28]	500 to 2000 nM
Cc1c(S(N)(=O)=O)cc(-c2ccc(S(=O)(=O)NC(C)(C)C)c(C(F)F)c2)n1CC1CCCCC1 [12/29]	< 500 nM
Cc1c(S(N)(=O)=O)cc(-c2ccc(S(=O)(=O)NC(C)(C)CCO)c(C(F)(F)F)c2)n1CC1CCCCC1 [12/31]	500 to 2000 nM
COCC(C)(C)NS(=O)(=O)c1ccc(-c2cc(S(N)(=O)=O)c(C)n2CC2CCCCC2)cc1C(F)(F)F [12/32]	500 to 2000 nM
Cc1c(S(N)(=O)=O)cc(-c2cc(C(C)(C)C)cc(C3(C)CC3)c2)n1CC1CCCCC1 [12/33]	< 500 nM
Cc1c(S(N)(=O)=O)cc(-c2ccc(N3CCOCC3)c(C(C)(C)C)c2)n1CC1CCCCC1 [12/34]	500 to 2000 nM
Cc1c(S(N)(=O)=O)cc(-c2ccc(N3CCOCC3=O)c(C(C)(C)C)c2)n1CC1CCCCC1 [12/35]	> 2000 nM
Cc1c(S(N)(=O)=O)cc(-c2cc(C(C)(C)C)c(F)c(C(C)(C)C)c2)n1CC1CCCCC1 [12/39]	< 500 nM
Cc1c(S(N)(=O)=O)cc(-c2cc(C3(C)CC3)cc(C3(C)CC3)c2)n1CC1CCCCC1 [12/40]	< 500 nM
Cc1c(S(N)(=O)=O)cc(-c2cc(C(F)(F)F)c3c(c2)C2(CCO3)CC2)n1CC1CCCCC1 [12/41]	500 to 2000 nM
Cc1c(S(N)(=O)=O)cc(-c2cc3c(c(C(C)(C)C)c2)OCCC3O)n1CC1CCCCC1 (stereo not shown) [12/45]	> 2000 nM
Cc1c(S(N)(=O)=O)cc(-c2cc(C(=O)NC(C)(C)C)cc(C(F)(F)F)c2)n1CC1CCCCC1 [13/13]	500 to 2000 nM
Cc1c(S(N)(=O)=O)cc(-c2cc(C(=O)N(C)C(C)(C)C)cc(C(F)(F)F)c2)n1CC1CCCCC1 [13/14]	> 2000 nM
COc1cc(-c2cc(S(N)(=O)=O)c(C)n2CC2CCCCC2)cc(C(C)(C)C)c1 [16/1]	> 2000 nM
Cc1c(S(N)(=O)=O)cc(-c2cc(OC(C)C)cc(C(C)(C)C)c2)n1CC1CCCCC1 [16/2]	500 to 2000 nM
Cc1c(S(N)(=O)=O)cc(-c2cc(OCC3CC3)cc(C(C)(C)C)c2)n1CC1CCCCC1 [16/3]	500 to 2000 nM
CNC(=O)COc1c(C(C)(C)C)cc(-c2cc(S(N)(=O)=O)c(C)n2CC2CCCCC2)cc1C(C)(C)C [16/10]	> 2000 nM
COCCOc1c(C(C)(C)C)cc(-c2cc(S(N)(=O)=O)c(C)n2CC2CCCCC2)cc1C(C)(C)C [16/11]	500 to 2000 nM
COc1cc(-c2cc(S(N)(=O)=O)c(C)n2CC2CCCCC2)cc(C(C)(C)C)n1 [17/1]	> 2000 nM
CCOc1cc(-c2cc(S(N)(=O)=O)c(C)n2CC2CCCCC2)cc(C(C)(C)C)n1 [17/2]	500 to 2000 nM
Cc1c(S(N)(=O)=O)cc(-c2cc(OCCCN3CCOCC3)nc(C(C)(C)C)c2)n1CC1CCCCC1 [17/3]	> 2000 nM
COCCOc1cc(-c2cc(S(N)(=O)=O)c(C)n2CC2CCCCC2)cc(C(C)(C)C)n1 [17/4]	500 to 2000 nM
